Results taken from patent US20120065205A1, “PYRAZINE CARBOXAMIDE OREXIN RECEPTOR ANTAGONISTS” (priority 2009, published 2012).

The molecules below were run against T1, OX2R (Homo sapiens, UniProt O43614) (assay: radioligand binding assay, membranes from CHO cells expressing OX2 receptor). Settings: CHO cell membranes.
T1 construct: expressed in transfected cells; host or cells: CHO cells (membranes)
T1 sequence (O43614 1-444): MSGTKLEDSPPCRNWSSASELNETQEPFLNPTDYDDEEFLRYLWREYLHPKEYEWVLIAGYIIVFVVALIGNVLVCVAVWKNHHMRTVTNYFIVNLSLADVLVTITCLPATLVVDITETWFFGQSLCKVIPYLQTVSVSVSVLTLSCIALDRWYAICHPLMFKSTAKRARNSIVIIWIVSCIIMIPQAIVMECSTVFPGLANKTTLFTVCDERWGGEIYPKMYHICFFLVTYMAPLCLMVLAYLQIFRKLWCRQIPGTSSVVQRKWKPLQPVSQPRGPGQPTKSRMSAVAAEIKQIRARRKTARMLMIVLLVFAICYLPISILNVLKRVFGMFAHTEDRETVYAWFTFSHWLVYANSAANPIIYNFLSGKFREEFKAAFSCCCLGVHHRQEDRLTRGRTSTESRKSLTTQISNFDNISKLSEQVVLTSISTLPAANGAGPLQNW
Description: The utility of the compounds in accordance with the present invention as orexin receptor OX1R and/or OX2R antagonists may be readily determined without undue experimentation by methodology well known in the art, including the “FLIPR Ca^2+ Flux Assay” (Okumura et al., Biochem. Biophys. Res. Comm. 280:976-981, 2001). In a typical experiment the OX1 and OX2 receptor antagonistic activity of the compounds of the present invention was determined in accordance with the following experimental method. For intracellular calcium measurements, Chinese hamster ovary (CHO) cells expressing the rat orexin-1 receptor or the human orexin-2 receptor, are grown in Iscove's modified DMEM containing 2 mM L-glutamine, […], 1% hypoxanthine-thymidine supplement, 100 U/ml penicillin, 100 ug/ml streptomycin and 10% heat-inactivated fetal calf serum (FCS). The cells are seeded at 20,000 cells/well into Becton-Dickinson black 384-well clear bottom sterile plates coated with poly-D-lysine. All reagents were from GIBCO-Invitrogen Corp. The seeded plates are incubated overnight at 37° C. and 5% CO2. […] Within the Fluorescent Imaging Plate Reader (FLIPR, Molecular Devices), test compounds are added to the plate in a volume of 25 ul, incubated for 5 min and finally 25 ul of agonist is added. Fluorescence is measured for each well at 1 second intervals for 5 minutes and the height of each fluorescence peak is compared to the height of the fluorescence peak induced by 70 pM Ala-6,12 orexin-A with buffer in place of antagonist. […] Alternatively, compound potency can be assessed by a radioligand binding assay (described in Bergman et. al. Bioorg. Med. Chem. Lett. 2008, 18, 1425-1430) in which the inhibition constant (Ki) is determined in membranes prepared from CHO cells expressing either the OX1 or OX2 receptor. The intrinsic orexin receptor antagonist activity of a compound which may be used in the present invention may be determined by these assays.

SMILES | Ki
COc1ccc(CNC(=O)c2nc(-c3cncc(Cl)c3)cnc2-c2ccccc2F)nc1OC [1-9, 6-(5-chloropyridin-3-yl)-N-[(5,6-dimethoxypyridin-2-yl)methyl]-3-(2-fluorophenyl)pyrazine-2-carboxamide] | 3.9 nM
COc1ccc(CNC(=O)c2nc(-c3cc(C)cc(C)c3)cnc2N2CCOCC2)nc1OC [2-5, N-[(5,6-dimethoxypyridin-2-yl)methyl]-6-(3,5-dimethylphenyl)-3-(morpholin-4-yl)pyrazine-2-carboxamide] | 33 nM
COc1ccc(CNC(=O)c2nc(-c3cncc(C)c3)cnc2-c2ccccc2)nc1OC [1-5, N-[(5,6-dimethoxypyridin-2-yl)methyl]-6-(5-methylpyridin-3-yl)-3-phenylpyrazine-2-carboxamide] | 1.4 nM
